Assay results taken from PubChem BioAssay AID1189 (EPA DSSTox, 2008).
The source made the active and inactive calls.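 The calls were made as follows: active = a tumor-causing dose value with its tumor site reported for any sex and species group of a rodent or other animal cancer study; inconclusive = only studies judged inadequate by the national testing program; inactive = tested in at least one study, none positive.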 Peptide text beside a SMILES is read from it.

Test: DSSTox (CPDBAS) Carcinogenic Potency Database Summary SingleCellCall Results
Settings: animal chronic carcinogenicity bioassays, CPDB summary call
Source text: The Carcinogenic Potency Database (CPDB) is a unique and widely used international resource of the results of over 6500 chronic, long-term animal cancer tests on over 1500 chemical substances. The CPDB provides easy access to the bioassay literature, with qualitative and quantitative analyses of both positive and negative experiments that have been published over the past 50 years in the general literature and by the National Cancer Institute/National Toxicology Program. The CPDB standardizes the diverse literature of cancer bioassays that vary widely in protocol, histopathological examination and nomenclature, and in the published author's choices of what information to provide in their papers. Results are reported in the CPDB for tests in rats, mice, hamsters, dogs, and nonhuman primates, and are based on the most positive result among all experiments for each sex-species. The DSSTox CPDBAS (all species) file incorporates data from the CPDB Summary Tables for the full list of over 1500 chemical substances tested in at least one species. A summary SingleCellCall, based on experimental bioassay results of one or more species, is provided for the entire DSSTox CPDBAS file (see Source URL).
An assignment of categorical carcinogenic activity based on minimal evidence for or against activity. […] Associated TD50 values and tumor site details for the relevant species/sex experiment supporting this overall CPDBAS SingleSiteCall are provided in the full CPDBAS DSSTox file (see Comment) and the corresponding CPDBAS Species Bioassay in PubChem.

| SMILES | outcome |
| --- | --- |
| CN(C)CNc1nnc(/C=C/c2ccc([N+](=O)[O-])o2)o1 | active |
| CN(N=O)c1cccnc1 | inactive |
| COc1cc(/C=C/C(=O)OCCc2ccccc2)ccc1O | inactive; active |
| CC(C)CCCCCCOC(=O)c1ccccc1C(=O)OCCCCCCC(C)C | active; inactive |
| Nc1ccc2cc3ccc(N)cc3nc2c1 | inactive |
| CC1=C[C@H]2O[C@@H]3[C@H](O)[C@@H](O)[C@@](C)(C34CO4)[C@@]2(CO)[C@H](O)C1=O (stereo partly specified) | inactive; active |
| CN(C)C(=O)COC(=O)Cc1ccc(OC(=O)c2ccc(N=C(N)N)cc2)cc1 | inactive |
| CCC[C@@H]1O[C@@H]2C[C@H]3[C@@H]4CCC5=CC(=O)C=C[C@]5(C)[C@H]4[C@@H](O)C[C@]3(C)[C@]2(C(=O)CO)O1 | active; inactive |
| Cc1cc(-c2ccc(N)c(C)c2)ccc1N | active |
| C[C@@H]1C[C@H](C)CN(S(=O)(=O)c2ccc(Cl)c(C(=O)O)c2)C1 | active |
| COc1cc(S(C)=O)ccc1-c1nc2ccncc2[nH]1 (stereo unspecified) | active |
| Cc1ccc2c(c1[N+](=O)[O-])C(=O)c1ccccc1C2=O | active |
| NNCc1ccccc1 | active |
| COP(=S)(OC)Oc1ccc(SC)c(C)c1 | inactive |
| NC1CCCCC1 | inactive |
| c1ccc2sc(SN3CCOCC3)nc2c1 | inactive |
| Oc1ccc(O)cc1 | active |
| ClC(Cl)C(Cl)(Cl)Cl | active |
| C/C=C(/C)C(=O)O[C@H]1CCN2CC=C(COC(=O)[C@](O)([C@H](C)OC)C(C)(C)O)[C@H]12 | active |
| Clc1c(Cl)c(Cl)c(Cl)c(Cl)c1Cl | active; inactive |
| CC(O)COC(C)(C)C (stereo unspecified) | active |
| O=C1C(c2[nH]c3ccc(S(=O)(=O)O)cc3c2O)=Nc2ccc(S(=O)(=O)O)cc21 | inactive; active |
| O=C/C=C/O | active |
| O=C1C=C2C(=CCOC2O)O1 (stereo unspecified) | inactive |

| SMILES | outcome |
| --- | --- |
| Cc1ccc(C)c(OCCCC(C)(C)C(=O)O)c1 | active; inactive |
| COc1cc(OC)c2c3c(c(=O)oc2c1)C(=O)CC3 | inactive; active |
| CCN(CC)CCCNC(=O)Cn1ncc(-c2ccccc2)c1-c1ccccc1 | inactive |
| CCOc1ccc(NC(=O)CC(C)O)cc1 (stereo unspecified) | active |
| c1ccc2cc(Nc3ccc(Nc4ccc5ccccc5c4)cc3)ccc2c1 | inactive; active |
| O=S1OCCO1 | inactive |
| CCCCC/C=N/N(C)C=O | active |
| Nc1nc(N)nc(-c2ccc([N+](=O)[O-])o2)n1 | active |
| NC(N)=S | active; inactive |
| Nc1nnc(-c2ccc([N+](=O)[O-])o2)o1 | active |
| O=S(=O)([O-])[O-].O=S(=O)([O-])[O-].[Zr+4] | inactive |
| O=C(Oc1ccccc1)Oc1ccccc1 | inactive |
| C=CCN(N=O)C(N)=O | active |
| CN(C#N)N=O | active |
| O=NN(CC(=O)O)CC(=O)O | inactive |
| Cc1cnc(NC(=O)C2=C(O)c3ccccc3S(=O)(=O)N2C)s1 | inactive |
| COc1cc(CNC(=O)CCCC/C=C/C(C)C)ccc1O | active |
| CC(I)C1OCC(CO)O1 (stereo unspecified) | active |
| ClCC(Cl)Cl | active |
| Nc1nc(N)nc(N)n1 | active |
| O=NN1CCCC1 | active; inactive |
| O=C1C(Cl)=C(Cl)C(=O)C(Cl)=C1Cl | inactive |
| Cc1ccc(O)c(C(C)(C)C)c1 | inactive |
| CC(=O)Nc1ccc(CC(=O)O)cc1 | inactive |

| SMILES | outcome |
| --- | --- |
| CC(N)Cc1ccccc1 (stereo unspecified) | inactive |
| CCNC(=S)NCC | active |
| CCC(C)c1cc([N+](=O)[O-])cc([N+](=O)[O-])c1O (stereo unspecified) | inactive |
| CC(C)(CO)CCCCCCC(C)(C)CO | inactive |
| [CH3][Hg][Cl] | active |
| COc1ccc(N)cc1N | active |
| CN(N=O)C1=Nc2ccc(Cl)cc2C(c2ccccc2)=[N+]([O-])C1 | inactive |
| c1ccc2c(c1)[nH]c1ccccc12 | active |
| CN(C)C(=S)[S][Bi]([S]C(=S)N(C)C)[S]C(=S)N(C)C | inactive |
| NC(CCC(=O)O)C(=O)O (stereo unspecified) | inactive; active |
| O=C(O)Cc1c[nH]c2ccccc12 | inactive |
| CC1CN(N=O)C(=O)O1 (stereo unspecified) | active |
| CCOP(=O)=O.CCOP(=O)=O.CCOP(=O)=O.[Al+3] | active; inactive |
| CCCCCCC(=O)/C=C/CCCCCCCCC(=O)OC | inactive; active |
| Nc1cnn([C@@H]2O[C@H](CO)[C@@H](O)[C@H]2O)c(=O)n1 | inactive |
| COc1ccc2nc(S(=O)Cc3ncc(C)c(OC)c3C)[nH]c2c1 (stereo unspecified) | active |
| CNC(=S)N(C)C | active |
| CNC(=O)O/N=C(\SC)C(=O)N(C)C | inactive |
| CCOP(=S)(OCC)SC1OCCOC1SP(=S)(OCC)OCC (stereo unspecified) | inactive |
| CO[C@H]1/C=C/O[C@@]2(C)Oc3c(C)c(O)c4c(O)c(c(/C=N/N5CCN(C)CC5)c(O)c4c3C2=O)NC(=O)/C(C)=C\C=C\[C@H](C)[C@H](O)[C@@H](C)[C@@H](O)[C@@H](C)[C@H](OC(C)=O)[C@@H]1C | active; inactive |
| Cc1ccc(Cc2cnc(NCCSCc3ccc(CN(C)C)o3)[nH]c2=O)cn1 | active |
| C=CCOc1ccccc1OCC(O)CNC(C)C (stereo unspecified) | inactive |
| C=Cc1cccc[n+]1[O-] | inactive |
| CN(C)C(=O)NC1CC2CC1C1CCCC21 (stereo unspecified) | inactive |

| SMILES | outcome |
| --- | --- |
| O=[N+]([O-])c1ccc(-c2cscn2)o1 | active |
| O=CCCl | active |
| Cc1ccc([N+](=O)[O-])cc1N | active |
| O=[N+]([O-])c1ccc(-c2nc(N3CCOCC3)c3ccccc3n2)s1 | active |
| Nc1ccc(Cl)cc1N | active |
| FC(Cl)C(F)(F)F (stereo unspecified) | inactive |
| CC(=O)OC/C=C(\C)CCC=C(C)C | inactive |
| CN(C)[C@@H]1C(=O)C(C(N)=O)=C(O)[C@@]2(O)C(=O)C3=C(O)c4c(O)cccc4[C@@](C)(O)[C@H]3[C@H](O)[C@@H]12 | inactive; active |
| Cc1ccc2c(-c3ccccc3)nc(=O)n(C(C)C)c2c1 | inactive |
| Cc1cc(Cl)ccc1N | active |
| CCCCCCCCCCCCN(C)N=O | active |
| Cc1ccccc1N | active |
| CCN(C)N=O | active |
| Cc1c2ccccc2c(C)c2c1ccc1ccccc12 | active; inactive |
| C=C(C)C#N | inactive |
| O=C(O)c1ccc(N=Nc2ccc(O)c(C(=O)O)c2)cc1 | inactive |
| NC(=O)Cc1cccc2ccccc12 | inactive; active |
| ClCC(Br)CBr (stereo unspecified) | active |
| CC(C)(C)O | active; inactive |
| [O]N=O | inactive |
| N#Cc1c(Cl)c(Cl)c(Cl)c(C#N)c1Cl | active; inactive |
| CCN(CC)CC#CC(C)(C)OC(=O)C(O)(c1ccccc1)C1CCCCC1 (stereo unspecified) | inactive; active |
| O=Nc1ccc(NO)cc1 | active |
| NC(=O)N/N=C/c1ccc([N+](=O)[O-])o1 | active |

| SMILES | outcome |
| --- | --- |
| COc1cc2c(c3oc(=O)c4c(c13)CCOC4=O)C1C=COC1O2 (stereo unspecified) | active |
| COC(=O)[C@H](Cc1ccccc1)NC(=O)[C@@H](N)CC(=O)O (H-Asp-Phe-OMe) | inactive |
| CCN(Cc1cccc(S(=O)(=O)O)c1)c1ccc(C(=C2C=CC(=[N+](CC)Cc3cccc(S(=O)(=O)O)c3)C=C2)c2ccccc2S(=O)(=O)[O-])cc1 | inactive; active |
| CCCN(CCC)c1c([N+](=O)[O-])cc(C(F)(F)F)cc1[N+](=O)[O-] | active |
| CC1CCC(C(C)C)C(O)C1 (stereo unspecified) | inactive |
| CCCC[N+](=O)[O-] | inactive |
| C=CCN(CC=C)N=O | active |
| CCCCOC(=O)c1ccc(O)cc1 | inactive; active |
| S=C=NCCc1ccccc1 | inactive; active |
| CCC1(CC)C(=O)N=C(O)NC1=O | active; inactive |
| CCCCN(CCCCO)N=O | active; inactive |
| NC1=NCN([C@@H]2O[C@H](CO)[C@@H](O)[C@H]2O)C(=O)N1 | inactive; active |
| CC(=O)C(N=Nc1ccc(-c2ccc(N=NC(C(C)=O)C(=O)Nc3ccccc3)c(Cl)c2)cc1Cl)C(=O)Nc1ccccc1 (stereo unspecified) | inactive |
| O=S(=O)(O)c1ccc(N=Nc2cc(S(=O)(=O)O)c3ccccc3c2O)c2ccccc12 | inactive; active |
| CC(=O)OC[C@H]1O[C@H](O[C@]2(COC(C)=O)O[C@H](COC(=O)C(C)C)[C@@H](OC(=O)C(C)C)[C@@H]2OC(=O)C(C)C)[C@H](OC(=O)C(C)C)[C@@H](OC(=O)C(C)C)[C@@H]1OC(=O)C(C)C | inactive |
| O=NN1CCCCC1C(=O)O (stereo unspecified) | inactive |
| OCC(O)CCl (stereo unspecified) | inactive |
| C[C@]12C/C(=C/O)C(=O)C[C@@H]1CC[C@@H]1[C@@H]2CC[C@@]2(C)[C@H]1CC[C@]2(C)O | active |
| ClC(Cl)=C(Cl)Cl | active; inactive |
| CN1CCCC1=O | active |
